Drawing on patent US7879848B2, “Dipeptidyl Peptidase-IV inhibiting compounds, method of preparing the same, and pharmaceutical compositions containing the same as an active agent” (LG Life Sciences, Ltd., priority 2005, dated 2011), this text covers IC50 for twelve compounds.

For the assay, the target named is T1, Dipeptidyl Peptidase-IV (DPP-IV) (Homo sapiens, UniProt P27487).
T1 construct: made in house
T1 sequence (P27487 whole entry): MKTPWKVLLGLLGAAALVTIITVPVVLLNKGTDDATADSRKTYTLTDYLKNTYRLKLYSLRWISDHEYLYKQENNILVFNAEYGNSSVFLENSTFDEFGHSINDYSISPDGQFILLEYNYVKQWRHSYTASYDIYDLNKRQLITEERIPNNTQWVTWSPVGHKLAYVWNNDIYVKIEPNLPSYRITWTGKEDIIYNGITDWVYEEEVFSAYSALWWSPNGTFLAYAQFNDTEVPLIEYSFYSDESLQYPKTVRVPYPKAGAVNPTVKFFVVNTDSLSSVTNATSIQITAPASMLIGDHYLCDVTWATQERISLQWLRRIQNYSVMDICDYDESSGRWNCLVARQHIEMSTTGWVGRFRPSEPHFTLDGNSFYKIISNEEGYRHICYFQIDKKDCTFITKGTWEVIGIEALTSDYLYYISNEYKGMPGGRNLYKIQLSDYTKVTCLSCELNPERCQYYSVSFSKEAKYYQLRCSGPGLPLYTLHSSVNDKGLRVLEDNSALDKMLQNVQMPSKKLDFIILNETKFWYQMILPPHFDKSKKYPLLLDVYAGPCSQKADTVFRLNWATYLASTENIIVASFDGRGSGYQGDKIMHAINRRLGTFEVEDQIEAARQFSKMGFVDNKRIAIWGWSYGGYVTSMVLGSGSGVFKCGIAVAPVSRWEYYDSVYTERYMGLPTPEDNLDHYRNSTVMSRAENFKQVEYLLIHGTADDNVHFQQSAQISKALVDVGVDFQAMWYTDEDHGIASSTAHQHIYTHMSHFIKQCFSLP
Description: Measurement of DPP-IV Activity-Inhibiting Ability (fluorescent substrate Ac-Gly-Pro-AFC). The class given is biochemical. To be noted: 25° C., 50 mmol HEPES (pH 7.4), DP-IV 7.1 nM, enzyme reaction for 1 hour. An excerpt:
Dipeptidyl Peptidase-IV (DPP-IV), known as serine protease, was obtained by a modification of the known method (Tanaka T. et al, Proc. Natl. Acad. Sci. USA, (1994) 91, 3082-3086), which comprises cloning, purification by use of Baculo-Virus and activation steps. DPP-IV was used to test the pharmaceutical efficacy of candidate inhibitors as follows. The cloned DP-IV was expressed in Baculo-Virus, which was purified by nickel column and then subjected to dialysis. The inhibitors synthesized in Examples were tested to determine the binding activity there of using a fluorescent substrate, Ac-Gly-Pro-AFC. Enzyme reactions were conducted for various concentrations of inhibitors, using 100 µM Ac-Gly-Pro-AFC at 25° C. in a buffer solution containing 50 mmol HEPES (pH 7.4), with the concentration of DP-IV being 7.1 nM. […] As the fluorescent spectrometer, Spectra MAX GeminiXS fluorescent spectrometer from Molecular Device Co. was used and the excitation frequency and emission frequency were set to 400 nm and 505 nm, respectively.
With `N[C@@H](CC(=O)N1CCn2c(nnc2C(F)(F)F)C1)CN1CCOC1=O` [Ex. 1, 3-[2S-amino-4-oxo-4-(3-trifluoromethyl-5,6-dihydro-8H-[1,2,4]triazolo[4,3-a]pyrazin-7-yl)-butyl]-oxazolidin-2-one], the concentration for half-maximal inhibition (IC50) was above 10000 nM.
The value for `CC1CN(C[C@@H](N)CC(=O)N2CCn3c(nnc3C(F)(F)F)C2)C(=O)O1` (stereo partly drawn) [Ex. 2, 3-[2S-amino-4-oxo-4-(3-trifluoromethyl-5,6-dihydro-8H-[1,2,4]triazolo[4,3-a]pyrazin-7-yl)-butyl]-5-methyl-oxazolidin-2-one] was 950 nM; that for `CC1CC(=O)N(C[C@@H](N)CC(=O)N2CCn3c(nnc3C(F)(F)F)C2)C1` (stereo partly drawn) [Ex. 4, 1-[2S-amino-4-oxo-4-(3-trifluoromethyl-5,6-dihydro-8H-[1,2,4]triazolo[4,3-a]pyrazin-7-yl)-butyl]-4-methyl-pyrrolidin-2-one] was 127 nM.
The value for `N[C@@H](CC(=O)N1CCn2c(nnc2C(F)(F)F)C1)CN1CCC(F)C1=O` (stereo partly drawn) [Ex. 5, 1-[2S-amino-4-oxo-4-(3-trifluoromethyl-5,6-dihydro-8H-[1,2,4]triazolo[4,3-a]pyrazin-7-yl)-butyl]-3-fluoro-pyrrolidin-2-one] was above 10000 nM; that for `N[C@@H](CC(=O)N1CCn2c(nnc2C(F)(F)F)C1)CN1CCCC1=O` [Ex. 6, 1-[2S-amino-4-oxo-4-(3-trifluoromethyl-5,6-dihydro-8H-[1,2,4]triazolo[4,3-a]pyrazin-7-yl)-butyl]-pyrrolidin-2-one] was 989 nM; that for `N[C@@H](CC(=O)N1CCn2c(nnc2C(F)(F)F)C1)CN1CCCC(F)C1=O` (stereo partly drawn) [Ex. 7, 1-[2S-amino-4-oxo-4-(3-trifluoromethyl-5,6-dihydro-8H-[1,2,4]triazolo[4,3-a]pyrazin-7-yl)-butyl]-3-fluoro-piperidin-2-one] was above 10000 nM.
As to `CC1CCN(C[C@@H](N)CC(=O)N2CCn3c(nnc3C(F)(F)F)C2)C1=O` (stereo partly drawn) [Ex. 8, 1-[2S-amino-4-oxo-4-(3-trifluoromethyl-5,6-dihydro-8H-[1,2,4]triazolo[4,3-a]pyrazin-7-yl)-butyl]-3-methyl-pyrrolidin-2-one], half-maximal inhibition (IC50) was put at 4150 nM.
The value for `CC1=CC(=O)N(C[C@@H](N)CC(=O)N2CCn3c(nnc3C(F)(F)F)C2)C1` [Ex. 9, 1-[2S-amino-4-oxo-4-(3-trifluoromethyl-5,6-dihydro-8H-[1,2,4]triazolo[4,3-a]pyrazin-7-yl)-butyl]-4-methyl-1,5-dihydro-pyrrol-2-one] was 201 nM.
Regarding `CC1CCN(C[C@@H](N)CC(=O)N2CCn3c(nnc3C(F)(F)F)C2)C(=O)C1` (stereo partly drawn) [Ex. 10, 1-[2S-amino-4-oxo-4-(3-trifluoromethyl-5,6-dihydro-8H-[1,2,4]triazolo[4,3-a]pyrazin-7-yl)-butyl]-4-methyl-piperidin-2-one], 141 nM corresponded to half-maximal inhibition (IC50).
In turn, `N[C@@H](CC(=O)N1CCn2c(nnc2C(F)(F)F)C1)CN1CC(F)(F)CCC1=O` [Ex. 11, 1-[2S-amino-4-oxo-4-(3-trifluoromethyl-5,6-dihydro-8H-[1,2,4]triazolo[4,3-a]pyrazin-7-yl)-butyl]-5,5-difluoro-piperidin-2-one] showed an IC50 of 75 nM. Compared with the last compound, the IC50 is about 1.9-fold lower.
The value for `C[C@@H]1CCC(=O)N(C[C@@H](N)CC(=O)N2CCn3c(nnc3C(F)(F)F)C2)C1` [Ex. 12, 1-[2S-amino-4-oxo-4-(3-trifluoromethyl-5,6-dihydro-8H-[1,2,4]triazolo[4,3-a]pyrazin-7-yl)-butyl]-5R-methyl-piperidin-2-one] was 35 nM; that for `N[C@@H](CC(=O)N1CCn2c(nnc2C(F)(F)F)C1)CN1CC(C(F)(F)F)CC1=O` (stereo partly drawn) [Ex. 13, 1-[2S-amino-4-oxo-4-(3-trifluoromethyl-5,6-dihydro-8H-[1,2,4]triazolo[4,3-a]pyrazin-7-yl)-butyl]-4-trifluoromethyl-pyrrolidin-2-one] was 378 nM.

As a reminder, the IC50 is the concentration that gives 50% inhibition. Lower therefore signals higher potency.
